Tests used:
[1] = tested on: psoriasis caused by imiquimod; assay: Epithelial thickness of back skin by H&E staining in imiquimod psoriasis animal model; format: in vivo, Balb/c mice; details: after treatment for a week, skin application, compared to the IMQ group
Description: (§1) 6-week-old male Balb/c mice (Kangwon Life Science, Korea) were purchased and acclimated for a week, and psoriasis was induced using 5% imiquimod (Donga ST, Korea). FIG. 1 is a schematic experimental scheme of an animal model. Anti-psoriatic efficacy was investigated using a total of 20 animal models including 5 animals per experimental group.
(§2) In order to determine the effect of the extract of Sphallerocarpus gracilis on psoriasis caused by imiquimod, the experimental animals of Section 2-1 were used. The following four experimental groups were constructed and five animals were randomly assigned to each group:
Normal control without any treatment (Non-treatment control, NTC);
Disease group with psoriasis induced using imiquimod by the method of Section 2-1 (IMQ);
Group to the skin of which dexamethasone was applied every day after induction of psoriasis (Positive control, DEX); and
Group to the skin of which the extract of Sphallerocarpus gracilis of Example 1 was applied (Experimental group, M215) […]
After treatment for a week, the back skin tissue was removed from each animal, and then a paraffin block was prepared. The paraffin block was cut to 5 μm to prepare a slide sample, and then the change in the thickness of the skin tissue was measured through H&E staining.

[2] = tested on: filaggrin, loricrin, keratin 1 and keratin 14; assay: Immunofluorescence of biomarkers for epithelial tissue damage in back skin of psoriasis animal model; format: in vivo, Balb/c mice; details: after treatment for a week, IMQ group decreased compared to non-treatment group
Description: as §1, §2
The experiment was conducted by inducing psoriasis with IMQ cream and then performing daily application in the amount shown in FIG. 2 to the experimental group and the DEX group. FIG. 3 is an image showing the treatment group for 7 days compared to the psoriasis-induced model as the animal experimental model.
After treatment for a week, back skin tissue was removed from each animal and a paraffin block was then prepared. A paraffin block was cut to 5 μm to prepare a slide sample, and then the change in biomarkers for epithelial tissue damage due to psoriasis was measured through immunofluorescence.

C[C@@H]1C[C@H]2[C@@H]3CCC4=CC(=O)C=C[C@]4(C)[C@@]3(F)[C@@H](O)C[C@]2(C)[C@@]1(O)C(=O)CO [DEX, dexamethasone]
thickness of the epithelial layer [1]: decreased thickness
expression level of filaggrin [2]: increased
expression level of keratin 1 [2]: increased
expression level of keratin 14 [2]: increased
expression level of loricrin [2]: increased

Reference: patent publication US11648284B2, “Composition for ameliorating psoriasis symptoms containing extract of Sphallerocarpus gracilis” (KOREA INSTITUTE OF SCIENCE AND TECHNOLOGY, priority 2020, dated 2023)
